Laboratory results: ChEMBL document CHEMBL5137050, “Hematopoietic Progenitor Kinase 1 in Tumor Immunology: A Medicinal Chemistry Perspective” (J Med Chem, 2022)

Key:
[1] = molecular target: T1, Mitogen-activated protein kinase kinase kinase kinase 1 (Homo sapiens, UniProt Q92918); test: Inhibition of HPK1 (unknown origin) assessed as inhibition constant by Lanthascreen binding assay
Target sequence in this assay (Q92918 whole entry): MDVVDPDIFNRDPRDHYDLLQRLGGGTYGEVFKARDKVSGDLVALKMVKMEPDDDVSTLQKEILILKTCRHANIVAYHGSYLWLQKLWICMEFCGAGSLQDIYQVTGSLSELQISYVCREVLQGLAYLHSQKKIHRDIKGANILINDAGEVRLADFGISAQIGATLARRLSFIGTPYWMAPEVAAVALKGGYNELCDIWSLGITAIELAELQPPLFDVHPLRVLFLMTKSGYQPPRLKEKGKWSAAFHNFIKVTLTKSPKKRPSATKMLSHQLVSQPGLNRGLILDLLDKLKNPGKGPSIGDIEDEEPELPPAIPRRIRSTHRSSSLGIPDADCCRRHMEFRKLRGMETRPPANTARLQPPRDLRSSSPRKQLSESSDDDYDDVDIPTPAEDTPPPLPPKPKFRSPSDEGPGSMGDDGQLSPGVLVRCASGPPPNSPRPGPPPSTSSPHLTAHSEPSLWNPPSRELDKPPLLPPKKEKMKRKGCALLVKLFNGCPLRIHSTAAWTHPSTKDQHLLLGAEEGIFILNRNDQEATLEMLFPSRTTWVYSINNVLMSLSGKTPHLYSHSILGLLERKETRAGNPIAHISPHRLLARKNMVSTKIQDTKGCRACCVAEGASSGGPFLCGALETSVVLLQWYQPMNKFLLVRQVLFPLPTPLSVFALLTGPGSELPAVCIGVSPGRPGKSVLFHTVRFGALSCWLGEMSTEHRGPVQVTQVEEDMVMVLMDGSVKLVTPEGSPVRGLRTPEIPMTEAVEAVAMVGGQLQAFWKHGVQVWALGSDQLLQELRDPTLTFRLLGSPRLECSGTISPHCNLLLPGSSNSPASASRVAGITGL

[2] = molecular target: T1, Mitogen-activated protein kinase kinase kinase kinase 1; test: Inhibition of HPK1 (unknown origin) in presence of ATP
Target sequence in this assay (Q92918 whole entry): as above

[3] = molecular target: Interleukin-2 (Homo sapiens, UniProt P60568); test: Inhibition of IL-2 (unknown origin)
Interleukin-2, sequence (P60568 whole entry): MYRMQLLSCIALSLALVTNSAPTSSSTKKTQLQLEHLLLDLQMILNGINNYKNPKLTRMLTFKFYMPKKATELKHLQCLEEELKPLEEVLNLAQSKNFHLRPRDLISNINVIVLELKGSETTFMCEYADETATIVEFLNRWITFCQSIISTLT

[4] = molecular target: T1, Mitogen-activated protein kinase kinase kinase kinase 1; test: Inhibition of HPK1 (unknown origin) assessed as inhibition of SLP76 phosphorylation by HTRF assay
Target sequence in this assay (Q92918 whole entry): as the sequence (Q92918 whole entry) above

[5] = molecular target: T1, Mitogen-activated protein kinase kinase kinase kinase 1; test: Inhibition of HPK1 (1 to 346 residues) (unknown origin) assessed as inhibition constant by Lanthascreen binding assay
Target sequence in this assay (Q92918 whole entry): as above

[6] = molecular target: T2, Protein cereblon/Mitogen-activated protein kinase kinase kinase kinase 1 (Homo sapiens) (UniProt Q92918+Q96SW2); test: PROTAC activity at CRBN/HPK1 (unknown origin) assessed as degradation of HPK1 at 10 nM incubated for 12 hrs by cell based assay relative to control
T2 sequence (Q92918 whole entry, looked up): as the sequence (Q92918 whole entry) above
T2 sequence (Q96SW2 whole entry, looked up): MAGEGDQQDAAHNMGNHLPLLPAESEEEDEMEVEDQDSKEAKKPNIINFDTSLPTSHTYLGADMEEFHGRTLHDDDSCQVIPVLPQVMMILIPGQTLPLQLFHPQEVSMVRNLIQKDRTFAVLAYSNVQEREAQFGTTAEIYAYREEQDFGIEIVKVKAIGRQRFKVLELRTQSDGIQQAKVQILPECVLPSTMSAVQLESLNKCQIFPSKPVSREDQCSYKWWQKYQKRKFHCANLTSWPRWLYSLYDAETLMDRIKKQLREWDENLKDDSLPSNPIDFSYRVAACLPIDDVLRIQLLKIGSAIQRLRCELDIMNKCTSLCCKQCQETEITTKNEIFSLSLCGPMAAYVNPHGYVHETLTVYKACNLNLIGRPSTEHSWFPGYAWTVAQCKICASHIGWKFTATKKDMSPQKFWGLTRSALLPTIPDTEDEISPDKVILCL

[7] = molecular target: T2, Protein cereblon/Mitogen-activated protein kinase kinase kinase kinase 1 (Homo sapiens); test: PROTAC activity at CRBN/HPK1 (unknown origin) assessed as degradation of HPK1 at 100 nM incubated for 12 hrs by cell based assay relative to control
[8] = molecular target: T1, Mitogen-activated protein kinase kinase kinase kinase 1; test: Inhibition of HPK1 (unknown origin) by TR-FRET assay
Target sequence in this assay (Q92918 whole entry): as the sequence (Q92918 whole entry) above

[9] = molecular target: T1, Mitogen-activated protein kinase kinase kinase kinase 1; test: Inhibition of HPK1 (unknown origin) by ELISA
Target sequence in this assay (Q92918 whole entry): as above

[10] = molecular target: T3, Receptor-type tyrosine-protein kinase FLT3 (Homo sapiens, UniProt P36888); test: Inhibition of FLT3 (unknown origin) by FRET assay
T3 sequence (P36888 whole entry): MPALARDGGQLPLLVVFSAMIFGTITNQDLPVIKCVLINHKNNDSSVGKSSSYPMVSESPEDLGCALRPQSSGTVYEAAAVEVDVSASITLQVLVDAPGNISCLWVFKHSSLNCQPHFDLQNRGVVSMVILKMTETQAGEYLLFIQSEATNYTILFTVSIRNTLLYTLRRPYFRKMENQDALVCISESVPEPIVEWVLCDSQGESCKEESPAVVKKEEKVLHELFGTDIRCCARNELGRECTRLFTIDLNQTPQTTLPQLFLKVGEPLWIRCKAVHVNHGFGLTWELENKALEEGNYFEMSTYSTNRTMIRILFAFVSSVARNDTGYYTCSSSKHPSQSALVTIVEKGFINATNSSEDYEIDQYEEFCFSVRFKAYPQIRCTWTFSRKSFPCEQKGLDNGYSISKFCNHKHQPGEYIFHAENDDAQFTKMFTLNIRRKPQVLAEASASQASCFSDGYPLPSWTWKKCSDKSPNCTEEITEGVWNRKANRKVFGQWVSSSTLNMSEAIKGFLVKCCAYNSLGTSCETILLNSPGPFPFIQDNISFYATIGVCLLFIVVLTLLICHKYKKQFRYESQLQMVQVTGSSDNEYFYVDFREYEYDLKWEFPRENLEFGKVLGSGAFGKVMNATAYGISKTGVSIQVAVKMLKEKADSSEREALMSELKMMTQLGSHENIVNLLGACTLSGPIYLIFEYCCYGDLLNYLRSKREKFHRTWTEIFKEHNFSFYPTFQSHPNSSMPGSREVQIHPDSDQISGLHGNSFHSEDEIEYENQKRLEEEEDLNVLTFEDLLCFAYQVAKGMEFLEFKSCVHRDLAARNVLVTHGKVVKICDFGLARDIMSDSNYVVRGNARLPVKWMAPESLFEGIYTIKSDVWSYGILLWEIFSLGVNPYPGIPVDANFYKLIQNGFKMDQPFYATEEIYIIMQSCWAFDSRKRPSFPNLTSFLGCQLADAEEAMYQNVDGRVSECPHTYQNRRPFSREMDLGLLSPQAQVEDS

[11] = molecular target: Tyrosine-protein kinase Lck (Homo sapiens, UniProt P06239); test: Inhibition of LCK (unknown origin)
Tyrosine-protein kinase Lck, sequence (P06239 whole entry): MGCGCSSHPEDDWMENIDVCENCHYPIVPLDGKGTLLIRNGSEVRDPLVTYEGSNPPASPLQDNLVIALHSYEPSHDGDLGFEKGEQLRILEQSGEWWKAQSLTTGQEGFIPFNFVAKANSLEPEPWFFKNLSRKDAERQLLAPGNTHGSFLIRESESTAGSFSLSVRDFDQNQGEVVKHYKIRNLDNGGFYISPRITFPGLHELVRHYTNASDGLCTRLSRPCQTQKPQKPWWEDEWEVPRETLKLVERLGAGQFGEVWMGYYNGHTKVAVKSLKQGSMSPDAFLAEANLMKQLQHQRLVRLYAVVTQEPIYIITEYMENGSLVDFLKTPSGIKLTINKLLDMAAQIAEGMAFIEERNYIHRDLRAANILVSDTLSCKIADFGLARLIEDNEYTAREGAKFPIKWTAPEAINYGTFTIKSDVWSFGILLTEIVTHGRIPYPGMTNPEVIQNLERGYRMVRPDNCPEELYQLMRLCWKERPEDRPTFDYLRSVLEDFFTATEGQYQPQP

[12] = molecular target: T1, Mitogen-activated protein kinase kinase kinase kinase 1; test: Binding affinity to HPK1 (unknown origin) assessed as dissociation constant by SPR analysis
[13] = molecular target: T1, Mitogen-activated protein kinase kinase kinase kinase 1; test: Inhibition of HPK1 (unknown origin) in presence of ATP by TR-FRET assay
[14] = molecular target: T1, Mitogen-activated protein kinase kinase kinase kinase 1; test: Inhibition of HPK1(unknown origin) assessed as inhibition of SLP76 phosphorylation by cell based assay
[15] = molecular target: T1, Mitogen-activated protein kinase kinase kinase kinase 1; test: Inhibition of HPK1 in human PBMC assessed as inhibition of SLP76 phosphorylation incubated for 1 hr by ELISA; type: cell-based
[16] = molecular target: T1, Mitogen-activated protein kinase kinase kinase kinase 1; test: Inhibition of N-terminal DYKDDDDK-tagged human HPK1 (1 to 346 residues) expressed in baculovirus expression system using SLP76 as substrate incubated for 1 hr in presence of ATP by TR-FRET assay
[17] = molecular target: T1, Mitogen-activated protein kinase kinase kinase kinase 1; test: Inhibition of HPK1 (unknown origin) assessed as inhibition of SLP76 phosphorylation at 0.3 to 1 uM relative to control; conditions: dose 0.3-1 µM
Target sequence in this assay (Q92918 whole entry, looked up): as the sequence (Q92918 whole entry) above

[18] = molecular target: T1, Mitogen-activated protein kinase kinase kinase kinase 1; test: Inhibition of HPK1 (unknown origin) in presence of ATP by ADP-Glo kinase assay
[19] = molecular target: T1, Mitogen-activated protein kinase kinase kinase kinase 1; test: Inhibition of HPK1 (unknown origin) by ADP-Glo kinase assay
[20] = molecular target: T1, Mitogen-activated protein kinase kinase kinase kinase 1; test: Inhibition of full-length HPK1 (unknown origin) assessed as inhibition constant in presence of ATP by HTRF assay
[21] = Cytotoxicity against HEK293 cells assessed as cell growth inhibition; type: toxicity, cell-based; conditions: human
[22] = molecular target: T2, Protein cereblon/Mitogen-activated protein kinase kinase kinase kinase 1 (Homo sapiens); test: PROTAC activity at CRBN/HPK1 (unknown origin) assessed as maximum inhibition of SLP76 phosphorylation by cell based assay relative to control
[23] = molecular target: T2, Protein cereblon/Mitogen-activated protein kinase kinase kinase kinase 1 (Homo sapiens); test: PROTAC activity at CRBN/HPK1 (unknown origin) assessed as maximum degradation of HPK1 by cell based assay relative to control
[24] = molecular target: T1, Mitogen-activated protein kinase kinase kinase kinase 1; test: Inhibition of HPK1 (unknown origin) by FRET assay

## Cc1cc2cc(N)c(C(=O)N(C)C)nc2[nH]1
[1]
  Ki: 1300 nM

## CCc1c(Cl)[nH]c2nc(C(=O)N(C)C)c(N)cc12
[1]
  Ki: 0.9 nM

## Cc1c(CC#N)ccnc1-c1cc(N)cc(-c2cnc3c(c2Cl)[C@]2(CC[C@](C)(C#N)C2)CN3)c1
[1]
  Ki: 0.9 nM

## C[C@H]1CC(=O)c2ccc(Nc3cc4c([C@](C)(N)C5CC5)cnc(OC5CC5)c4cn3)cc2C12CC2
[2]
  IC50: 0.05 nM
[3]
  EC50: 9.4 nM

## CNCc1nc(C2(C)CC2)cc2c1CN(c1cccc(N3C(=O)OC[C@@H]3C)n1)C2=O
[4]
  IC50: 730 nM

## COc1cccc(F)c1-c1ccc2[nH]nc(-c3ccc(N4CCN(C)CC4)cc3)c2n1
[5]
  Ki: ≤ 100 nM

## CC(C)(O)C#Cc1cccc(COc2cc(-c3cnc(C4CCN(C(=O)CCOCCOCCOCCOCCOc5cccc6c5C(=O)N(C5CCC(=O)NC5=O)C6=O)CC4)s3)cnc2N)c1 (configuration not stated)
[6]
  Activity: 72%
[7]
  Activity: 68%

## COCCN(C)C(=O)c1ccc(-c2c[nH]c3ncc(-c4ccc(N5CCN(C)CC5)cc4)nc23)cc1
[8]
  IC50: 8.2 nM

## CN1CCN(c2ccc3[nH]c(-c4c(N)c5ccsc5[nH]c4=O)nc3c2)CC1
[9]
  IC50: ≤ 50 nM
[10]
  IC50: ≤ 500 nM
[11]
  IC50: 50 nM

## Cn1cc(Nc2ncc(C3=CCC[C@@H](NC(=O)c4ccccc4)C3)nc2C(N)=O)cn1
[12]
  Kd: 2.2 nM
[13]
  IC50: 4 nM
[14]
  EC50: 149 nM

## COc1cc2c(cc1Nc1ncc(Cl)c(Nc3ccccc3P(C)(C)=O)n1)CN(C)CC2
[15]
  IC50: 100 nM
[2]
  IC50: < 5 nM
[16]
  IC50: 0.334 nM

## Cc1c(CC#N)ccnc1-c1cccc(-c2cnc3c(c2Cl)C2(CC[C@@](C)(C(N)=O)C2)CN3)c1F (some centres not stated)
[1]
  Ki: 0.39 nM

## CN(C)C(=O)c1ccc(-c2c[nH]c3ncc(-c4ccc5c(c4)CNCC5)cc23)cc1
[8]
  IC50: 107 nM

## Cc1cc(-c2cnc(N)c(OCc3ccnc(C#Cc4cccc(F)c4)c3)n2)cc2c1CCN(C)C2
[13]
  IC50: 2.8 nM

## CN(C)C(=O)c1ccc(-c2c[nH]c3ncc(-c4ccc5c(c4)CN([C@H]4CC[C@](C)(O)CC4)CC5)cc23)cc1
[8]
  IC50: 7.3 nM

## CN1CCN(c2ccc3nc(-c4c(N)c5ccsc5[nH]c4=O)[nH]c3c2)CC1
[17]
  inhibition: > 75%

## COc1cc2c(cc1Nc1ncc(Cl)c(Nc3ccccc3S(=O)(=O)C(C)C)n1)CN(C)CC2
[2]
  IC50: ≤ 5 nM

## Cc1cc(CNCCO)cc(F)c1-c1cc2c(-c3cnn(C)c3)n[nH]c2cn1
[5]
  Ki: ≤ 100 nM

## COc1ccc(-c2c[nH]c3ncnc(Oc4c(F)cc(NC5=NCC(C)(CO)CO5)cc4F)c23)c(F)c1 (configuration not stated)
[18]
  IC50: ≤ 50 nM

## Cc1ccncc1-c1cc2cc(NC(=O)C=C3CC(C#N)C3)ncc2c(N)n1 (configuration not stated)
[19]
  IC50: < 0.01 nM

## COc1cc2c(cc1Nc1ncc(C(F)(F)F)c(Nc3ccccc3P(C)(C)=O)n1)CN(C)CC2
[2]
  IC50: 5 nM

## Cc1c(N)cncc1-c1cc2cc(Nc3cc4n(n3)CC(=O)N(C(C)C)CC4)ncc2cc1F
[20]
  Ki: 0.05 nM

## COc1ccc(-c2c[nH]c3ncc(C#N)c(Oc4c(F)cc(NC5=NCC(C)(CO)CO5)cc4F)c23)c(F)c1 (configuration not stated)
[18]
  IC50: ≤ 50 nM

## Cc1cc(-c2cnc3[nH]cc(-c4ccc(C(=O)N5CC(N(C)C)C5)cc4)c3c2)cc(C)c1N1CCN(C2CCN(C)CC2)CC1
[8]
  IC50: 4.8 nM

## COc1cc2c(cc1Nc1ncc(Br)c(Nc3ccccc3P(C)(C)=O)n1)CN(C)CC2
[2]
  IC50: ≤ 5 nM

## Cc1cc(-c2cnc3[nH]cc(-c4ccc(C(=O)N(C)C[C@H](C)O)cc4)c3n2)cc2c1CCN(CCN1CCOCC1)C2
[21]
  IC50: 1420 nM
[8]
  IC50: 11 nM

## COc1cc2c(cc1Nc1ncc(Cl)c(N3CC(CO)c4ccccc43)n1)CN(C)CC2 (configuration not stated)
[19]
  IC50: < 100 nM

## C[C@H]1COC(=O)N1c1cc(N)c2nnc(NC(=O)[C@@H]3C[C@H]3c3cnn(C)c3)cc2c1
[19]
  IC50: 1.9 nM

## COc1cccc(F)c1-c1ncc2[nH]nc(-c3ccc(N4CCN(C)CC4)cc3)c2n1
[5]
  Ki: ≤ 100 nM

## CC(C)(O)C#Cc1cccc(COc2cc(-c3cnc(C4CCN(C(=O)CCCCCCCCCOc5cccc6c5C(=O)N(C5CCC(=O)NC5=O)C6=O)CC4)s3)cnc2N)c1 (configuration not stated)
[6]
  Activity: 15%
[22]
  Emax: 81%
[7]
  Activity: 75%
[23]
  Emax: 62%

## COc1cccc(F)c1-n1cc2c(-c3ccc(N4CCN(C)CC4)cc3)n[nH]c2cc1=O
[5]
  Ki: ≤ 100 nM

## CNC(=O)c1ccccc1Nc1nc(Nc2cc3c(cc2OC)CCN(C)C3)ncc1Cl
[2]
  IC50: 5 nM

## COc1cccc(F)c1-c1cc2c(C(=O)Nc3ccc(N4CCN(C)CC4)cc3)n[nH]c2cn1
[5]
  Ki: ≤ 100 nM

## CC(C)n1cnnc1-c1cccc(N2Cc3c(cc(N4CCC[C@H]4C)nc3CN)C2=O)n1
[4]
  IC50: 22 nM

## Cc1cc(-c2cnc3[nH]cc(-c4ccc(C(O)C5CCN(C)C5)cc4)c3c2)ccc1N1CCN(C)CC1 (configuration not stated)
[8]
  IC50: 4.5 nM

## C/C(Nc1ccc(N2CCOCC2)cn1)=C1/C(=O)Nc2cnc(-c3cnccc3C)cc21
[24]
  IC50: < 50 nM

## COc1cc2c(cc1Nc1ncc(Cl)c(Nc3ccccc3P(C)(C)=O)n1)CN(C)CCC2
[2]
  IC50: 100 nM

## CCc1c(C)[nH]c2nc(C(=O)N(C)C)c(N)cc12
[1]
  Ki: 15 nM

## CCN(CC)CCNC(=O)c1c[nH]c(/C=C2\C(=O)Nc3ccc(-c4c(F)cccc4OC)cc32)c1
[24]
  IC50: < 50 nM

## COc1cc2c(cc1Nc1ncc(Cl)c(Nc3ccccc3P(C)(C)=O)n1)CN(C)C2
[2]
  IC50: 10 nM

## COc1cccc(F)c1-c1cc2c(NCc3ccc(N4CCN(C)CC4)cc3)n[nH]c2cn1
[5]
  Ki: 500 nM

## CN1CCN(c2ccc3nc(-c4c(N)c5sccc5[nH]c4=O)[nH]c3c2)CC1
[17]
  inhibition: > 75%
[9]
  IC50: 50 nM
[10]
  IC50: 50 nM
[11]
  IC50: 50 nM
